Source: patent US20190352341A1, “MODIFIED PEPTIDES AND THEIR USE FOR TREATING SYSTEMIC LUPUS ERYTHEMATOSUS” (IMMUPHARMA FRANCE SA, priority 2018, published 2019)
Numbered stars: 1 amine (or outer) side, 2 acyl side, 3 side chain; on linkers, the order of the positions; unused ones are H or OH. Square brackets hold non-standard residues; d marks the D form. Peptide text beside a SMILES is read from it. ξ: configuration not given here. X1 = CSCC[C@H](NC(=N)[C@H](Cc1c[nH]cn1)N[*:1])C(=O)[*:2]; pS = N[C@@H](COP(=O)(O)O)C(=O)O; Ile(3ξ) = CCC(C)[C@H](N)C(=O)O

Tests used:
CD4+ T splenocytes = assay: Collagen-induced arthritis (CIA) mouse model, ex vivo T splenocyte proliferation; assay type: in vivo; settings: DBA/1 CIA mice, peptide i.v. day −1, +7, +14, +20; 100 μg CII/mL, CFSE assay by FACS
Method: Next, P140 peptide was administered in a model of mice that develop a RA-like disease (we anticipated to use this mouse model as a negative control of MRL/lpr-lupus prone mice). This model, called collagen-induced arthritis (CIA) mouse model, is the most commonly studied autoimmune model of RA. In this model, autoimmune arthritis is induced by immunizing DBA/1 mice with an emulsion of complete Freund's adjuvant (CFA) and type II collagen (CII), and typically, the first signs of arthritis appear in 21-28 days after immunization (Brand et al., 2007). CIA shares several pathological features with human RA, and CII is a major protein in cartilage, the target tissue of RA. Pathological features include synovial hyperplasia, mononuclear cell infiltration, and cartilage degradation. Susceptibility in these mice is linked to the expression of specific MHC class II genes, DBA/1 have H-2^q haplotype.
P140 peptide was thus administrated intravenously to DBA/1 mice at day −1, +7, +14 and +20 in a setting close to the one we used in MRL/lpr mice ([…]). CII in CFA was injected at days+1 and +21 (200 μg, intradermal route). Mouse weight and their clinical score were followed using very classical procedure. Biological parameters were also evaluated (i.e. T cell response, antibody response, joint histology, etc).

C57BL/6 mice = assay: DSS-induced mouse model of colonic inflammation; assay type: in vivo
Text: Normal mice (C57BL/6; 7 week-old; males) have received the P140 peptide ([…], iv route; 10 mice) or saline only (control group; 10 mice) at days −2 and −1. At day 0, dextran sodium sulfate (DSS; 2-3%) was administrated to induce the disease.
Animals were examined every day for body weight loss, stool consistency, diarrhea, and blood in the feces. The animals were sacrificed around day 14 or at any time if they are very sick (loss >25% body weight). Statistics: Mann-Whitney (exact)

HSC70 protein = target: T1, HSC70 protein (Bos taurus, UniProt P19120); assay: Affinity of the peptides for HSC70 protein (BIAcore); assay type: binding, bovine
T1 construct: purchased Stressgen
Method: BIAcore 3000 system (Biacore AB) was used to evaluate the binding of P140 peptides to HSC70 protein (Page et al., 2009, and 2011). Sensor chip CMS, surfactant P20, amine coupling kit containing N-hydroxysuccinimide (NHS) and N-ethyl-N′-dimethylaminopropyl carbodiimide (EDC), 2-(2-pyridinyldithio)ethaneamine (PDEA) and ethanolamine were from Biacore AB. Biosensor assays were performed with HBS-EP buffer as running buffer (10 mM HEPES, 150 mM NaCl, 3 mM EDTA, 0.005% surfactant P20, pH 7.4). The compounds were diluted in the running buffer. The sensor chip surface was regenerated after each experiment by injecting 10 μL of 10 mM HCl. Recombinant bovine HSC70 (Stressgen) was immobilized on flow cells of a CM5 sensor chip through its thiol groups using 35 μL PDEA in 50 mM borate buffer, pH 8.3 on the NHS/EDC-activated matrix. Then, 35 μL of HSC70 (100 μg/mL in formate buffer, pH 4.3) were injected until a response of 13,000 response units (RU) corresponding to 13 ng/mm^2 of HSC70 was immobilized. Twenty μL of a 50 mM cysteine/1 M NaCl solution was used to saturate unoccupied sites on the chip. The direct binding measurement of P140 peptides to HSC70 was carried out at 25° C. with a constant flow rate of 20 μL/min. P140 peptide and analogues were injected in the flux at different concentrations for 3 min, followed by a dissociation phase of 3 min. The kinetic parameters were calculated using the BIAeval 3.1 software on a personal computer. Analysis was performed using the simple 1:1 Langmuir binding model. The specific binding profiles were obtained after subtracting the response signal from the control empty channel and from blank-buffer injection. The fitting to each model was judged by the χ^2 value and randomness of residue distribution compared to the theoretical model.

MRL/lpr mice = assay: MRL/lpr mouse model of Gougerot-Sjögren syndrome (salivary glands); assay type: in vivo
Method: In this study MRL/lpr female 11-12 week old mice were used with 10 mice per group for statistical analysis. Each mouse received a single injection by retro-orbital, 100 μg of peptide P140 of 100 μl in […] NaCl. After 5 days, the mouse blood was collected in heparinized tube and salivary glands (GSS) were removed and placed in Eppendorf tubes containing PBS pH 7.4.
The number of foci site (FS) is determined for each mouse. A focus is defined as an aggregate of 50 or more cells.
The level of inflammation SG is determined semiquantitatively by a scoring system (0-3 scale): Grade 0: no inflammatory cells; Grade 1: few perivascular inflammatory and periductal Infiltrates (<100 cells); Grade 2: moderate number of perivascular inflammatory and periductal Infiltrates (100-500 cells); Grade 3: extensive inflammation with inflammatory foci broad (>500 cells).
Cells of total salivary glands stained with fluorescently were labeled antibodies for 40 min at 4° C., Were Collected data by FACSCalibur.
The weight of salivary glands Was Measured after-excision. DNase I (1 mg/ml) and collagenase D (50 μg/ml) were used to digest the salivary glands. Total cell counts were evaluated after the digestion.
The MRL/lpr mice (10 mice per arm) were injected with peptide P140 (100 μl/mouse iv). Five days after injection the mice were sacrificed and SGs collected as indicated above. The tissue was cut by the cryostat sections of 5 μm. The sections were labeled with hematoxylin/eosin staining is the method most frequently used in tissue histology. The level of inflammation and the number of FS were determined (FIGS. 19 and 20). Representative pictures are from sample control group 4 and group Treated sample (Bar 500 μm).

[1] = P140 iv at days −2 and −1, DSS from day 0, vs saline group
[2] = BIAcore, 25° C., 1:1 Langmuir model, global fit
[3] = 5 days after one single iv injection, flow cytometry

T1 sequence (P19120 whole entry): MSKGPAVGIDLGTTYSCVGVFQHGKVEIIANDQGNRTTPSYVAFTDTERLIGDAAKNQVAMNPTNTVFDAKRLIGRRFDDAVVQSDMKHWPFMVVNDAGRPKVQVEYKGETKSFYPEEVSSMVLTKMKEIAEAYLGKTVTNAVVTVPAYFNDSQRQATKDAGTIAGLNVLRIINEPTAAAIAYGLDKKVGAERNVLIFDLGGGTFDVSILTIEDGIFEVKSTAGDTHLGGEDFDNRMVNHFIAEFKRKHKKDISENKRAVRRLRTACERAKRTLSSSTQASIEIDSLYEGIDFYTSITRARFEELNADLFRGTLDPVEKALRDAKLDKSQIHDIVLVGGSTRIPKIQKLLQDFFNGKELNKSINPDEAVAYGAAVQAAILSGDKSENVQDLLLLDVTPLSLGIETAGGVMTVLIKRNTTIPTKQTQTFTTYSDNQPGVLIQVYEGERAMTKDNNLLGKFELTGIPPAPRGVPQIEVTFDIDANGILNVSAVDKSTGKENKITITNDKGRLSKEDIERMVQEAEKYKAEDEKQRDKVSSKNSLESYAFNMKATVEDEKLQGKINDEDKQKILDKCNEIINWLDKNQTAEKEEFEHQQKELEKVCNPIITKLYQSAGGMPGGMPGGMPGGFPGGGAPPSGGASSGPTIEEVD

In the case of `CCC(C)[C@H](NC(=O)[C@H](Cc1ccccc1)NC(=O)[C@H](C)NC(=O)[C@H](Cc1ccc(O)cc1)NC(=O)CNC(=O)[C@H](CCCNC(=N)N)NC(=O)[C@@H]1CCCN1C(=O)[C@H](CCCCN)NC(=O)CNC(=O)[C@H](COP(=O)(O)O)NC(=O)[C@H](CCCNC(=N)N)NC(=O)[C@H](CCCCN)NC(=O)[C@H](CO)NC(=O)[C@H](Cc1ccc(O)cc1)NC(=O)[C@@H](NC(=O)[C@H](CCSC)NC(=N)[C@H](Cc1c[nH]cn1)NC(=O)[C@@H](NC(=O)[C@@H](N)CCCNC(=N)N)C(C)CC)C(C)C)C(=O)N[C@@H](CCC(=O)O)C(=O)N[C@@H](Cc1ccc(O)cc1)C(=O)O` (some centres unmarked) [Compound P140] (H-R[Ile(3ξ)][X1]VYSKR[pS]GKPRGYAF[Ile(3ξ)]EY-OH), the “CD4+ T splenocytes proliferation ex vivo in the presence of CII” value (CD4+ T splenocytes) is reported as “strongly diminished”, the Body weight (C57BL/6 mice; [1]) is reported as “No difference” and the Colon size (C57BL/6 mice; [1]) is reported as “significant increase”. For the same compound, the “DAI (disease activity index)” value (C57BL/6 mice; [1]) was “Little difference”, the “Day at which blood appeared in the feces” value (C57BL/6 mice; control groups day +6) was “+8 day” and the Rmax (HSC70 protein; BIAcore, 25° C., 1:1 Langmuir model) was 83.3 RU. The KA (HSC70 protein; [2]) was 144000 M⁻¹, the kd (HSC70 protein; [2]) was 0.00312 s⁻¹ and the kon (HSC70 protein; BIAcore, 25° C., 1:1 Langmuir model, global fit, read-out: ka) was 450 M⁻¹ s⁻¹. The RI (HSC70 protein; peptide 1.56 μM) was 12.1 RU, the Req (HSC70 protein; peptide 1.56 μM) was 15.3 RU and the kobs (HSC70 protein; peptide 1.56 μM) was 0.00382 s⁻¹. The RI (HSC70 protein; peptide 3.12 μM) was 20.9 RU, the Req (HSC70 protein; peptide 3.12 μM) was 25.8 RU and the kobs (HSC70 protein; peptide 3.12 μM) was 0.00452 s⁻¹. For the same compound, the RI (HSC70 protein; peptide 6.25 μM) was 33.8 RU, the Req (HSC70 protein; peptide 6.25 μM) was 39.5 RU and the kobs (HSC70 protein; peptide 6.25 μM) was 0.00593 s⁻¹. For the same compound, the RI (HSC70 protein; peptide 12.5 μM) was 62.5 RU, the Req (HSC70 protein; peptide 12.5 μM) was 53.6 RU and the kobs (HSC70 protein; peptide 12.5 μM) was 0.00874 s⁻¹. The RI (HSC70 protein; peptide 25 μM) was 118 RU, the Req (HSC70 protein; peptide 25 μM) was 65.2 RU and the kobs (HSC70 protein; peptide 25 μM) was 0.0144 s⁻¹. The “Lymphocytic infiltration in the SGs” value (MRL/lpr mice; 5 days after one single administration, hematoxylin/eosin) was “significantly reduced”, the “Weight of salivary glands (SGs)” value (MRL/lpr mice; 5 days after one single iv injection) was “no statistically significant effect” and the “CD4+ T cells in SGs” value (MRL/lpr mice; [3]) was “decreased”. The “Total number of B cells in SGs” value (MRL/lpr mice; [3]) was “no statistically significant effect” and the “Total number of cells present in the SGs” value (MRL/lpr mice; [3]) was “no apparent effect”.
